Experimental data from publication PMC2712691, “Bio-Benchmarking of Electronic Nose Sensors” (PLoS ONE, 2009).

Biological target: T1, dOR35a (Drosophila melanogaster, UniProt Q9V3Q2)
T1 construct: gene Or35a; pIB-DmOr35a transiently expressed in Sf9 cells
T1 sequence (Q9V3Q2 1-409): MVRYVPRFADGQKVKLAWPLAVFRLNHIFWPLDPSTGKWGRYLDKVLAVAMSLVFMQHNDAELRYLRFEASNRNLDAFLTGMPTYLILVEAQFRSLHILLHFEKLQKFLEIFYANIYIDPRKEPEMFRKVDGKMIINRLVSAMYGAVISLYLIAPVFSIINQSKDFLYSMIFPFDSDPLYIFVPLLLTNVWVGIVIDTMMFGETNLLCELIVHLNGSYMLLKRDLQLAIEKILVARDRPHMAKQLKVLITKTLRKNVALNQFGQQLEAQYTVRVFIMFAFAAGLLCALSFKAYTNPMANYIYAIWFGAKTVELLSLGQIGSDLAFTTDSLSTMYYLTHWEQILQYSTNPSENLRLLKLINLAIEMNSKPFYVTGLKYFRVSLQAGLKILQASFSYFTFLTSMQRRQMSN
Assay: Fluo4 calcium imaging of receptor transiently expressed in Sf9 cells, concentration-response
Assay type: cell-based

EC50 [nM] | SMILES
22.7 | CCCCCCCCO [1-octanol]
3460 | C=CC(O)CCCCC (centres unmarked) [1-octen-3-ol]
